Target: T1, BRD4 (D1); BRD4 (BD1) (Homo sapiens, UniProt O60885)
T1 construct: first bromodomain (D1/BD1), purchased from Biogenie, Canada
Experiment: AlphaScreen peptide displacement assay
Format: binding

CCC1Oc2cc(NS(=O)(=O)c3ccccc3OC)ccc2NC1=O (stereo not shown) [compound 5, N-(2-ethyl-3-oxo-3,4-dihydro-2H-benzo[b] [1, 4]oxazin-7-yl)-2-methoxybenzenesulfonamide]
IC50: 999 nM

From publication PMC6822579, “A novel benzoxazinone derivative YLT-LL-11 inhibits diffuse large B-cell lymphoma growth via inducing cell cycle arrest and apoptosis” (Bioscience Reports, 2019)
